Consider one compound from patent US20120122870A1, “Treatment Of Ischemia-Reperfusion Injury” (MUSC FOUNDATION FOR RESEARCH DEVELOPMENT, priority 2009, published 2012).

The subject of assay [1] is hepatic warm IR in C57BL/6 mice. Description: Liver necrosis (H+E, image analysis) after hepatic warm IR. The class given is in vivo. As to the method: Warm IR upregulates SK in the liver. IR injury to the liver occurs in LT. Since SK is associated with inflammatory processes, we investigated whether IR affects SK expression in the liver. Male C57BL/6 mice (8-9 weeks) were gavaged with ABC294640 (ABC, 50 mg/kg) or an equal volume of vehicle (0.375% Tween-80 in phosphate buffer) 1 h prior to surgery. Under ether anesthesia, hepatic ischemia was induced by clamping the hepatic artery and portal vein to the upper three lobes of the liver (i.e., about 70% of total liver). One hour later, the ischemic liver was reperfused by opening the vascular clamp. Livers were collected 6 h later under pentobarbital anesthesia (80 mg/kg, i.p.) and SK was detected immunohistochemically. […] SK expression increased markedly after hepatic IR (FIG. 9 middle). Upregulation of SK occurred most overtly in hepatocytes in the midzonal regions of the liver lobule.
ABC294640 prevents hepatic warm IR-induced cell death. SK increased after hepatic IR, therefore, we investigated whether ABC294640 protects against hepatic IR injury. […] Necrotic areas became panlobular after 1 h-ischemia plus 6 h of reperfusion (FIG. 10, middle). Necrotic area, quantified by computerized image analysis of 10 random fields per slide, accounted for 68% of the liver tissue (FIG. 11A). […] Hepatic apoptosis was evaluated by terminal deoxylnucleotidyl transferase-mediated deoxyuridine triphosphate biotin nick end labeling (TUNEL) (FIG. 11B). […]
Histology: Under pentobarbital anesthesia (50 mg/kg, i.p.), livers were rinsed with 10 ml normal saline and perfusion-fixed with 4% paraformaldehyde in phosphate buffer, embedded in paraffin, and sections were stained with hematoxylin-eosin (H+E). Necrotic areas in sections were quantified by image analysis using an Image-1/AT image acquisition and analysis system (Universal Imaging Corp., West Chester, Pa.) incorporating an Axioskop 50 microscope (Carl Zeiss, Inc., Thornwood, NY) and a 10× objective lens.

In assay [2] the test system is hepatic warm IR in mice. The experiment in a line: Serum ALT and total bilirubin after hepatic warm IR. Format: in vivo. The procedure:
Liver warm ischemia was induced as described above. Blood was collected at 6 h after reperfusion, and serum alanine aminotransferase (ALT) activity and bilirubin were measured. Before ischemia, serum ALT levels were 22 U/L. At 6 h after reperfusion, ALT levels increased to ˜19,000 U/L in livers exposed to 1 h-ischemia (FIG. 12A). Pretreatment of the animals with ABC294640 decreased ALT levels after IR to ˜1,600 U/L, which reflects a >90% decrease compared to livers without ABC294640 treatment (FIG. 12A). […] Bilirubin accumulates in the blood when liver function is poor. Serum total bilirubin was 0.26 mg/dL in mice subjected to the sham operation. Bilirubin increased 3-fold 6 h after reperfusion (FIG. 12B). […] Clinical chemistry: Blood samples were collected from the vena cava at various times, and ALT and bilirubin were measured enzymatically using analytic kits from Pointe Scientific.

Assay [3] has as its system hepatic warm IR in mice. The experiment in a line: Survival after hepatic warm IR with removal of non-ischemic lobes. Format: in vivo. Particulars: 1 h-ischemia, non-ischemic lobes removed, observed 7 days. From the text: To evaluate the effects of ABC294640 on survival of mice after IR, the non-ischemic liver lobes were removed after the vascular clamp was opened and mice were observed 7 days for survival. This procedure mimics total LT.

For assay [4], the system named is PMN infiltration in liver. The experiment in a line: PMN infiltration (MPO immunohistochemistry) after hepatic warm IR. Format: in vivo, mice. The procedure: ABC294640 prevents hepatic warm ischemia-reperfusion (IR)-induced polymorphonuclear leukocyte (PMN) infiltration in mice. Hepatic warm ischemia was induced by clamping the mouse hepatic artery and portal vein to the upper three lobes of the liver as described in the original application. One hour later, the ischemic liver was reperfused by opening the vascular clamp. Livers were collected 6 h later and myeloperoxidase (MPO), a marker of PMNs, was detected immunohistochemically. MPO-positive cells were counted in 10 fields selected randomly per slide in a blinded manner to assess PMN infiltration. MPO-positive cells were ˜1/high power field (hpf) in livers from sham-operated mice (FIG. 16). Six hours after reperfusion, MPO-positive cells increased almost 10-fold, indicating pronounced inflammation. […] ABC294640 (50 mg/kg, i.g. once) decreased PMN infiltration by ˜70% at 6 h after reperfusion (FIG. 16). Livers from mice exposed to one dose of ABC294640 had lower PMN infiltration compared to the untreated mice even at 2 weeks after reperfusion. […] Immunohistochemistry: Sections were deparaffinized in xylene, rehydrated in a series of graded alcohol concentrations and placed in phosphate buffered saline with 0.1% Tween-20. […] Appropriate peroxidase-conjugated secondary antibodies (DAKO Corp.) were then applied, followed by 3,3′-diaminobenzidine chromagen as the peroxidase substrate. A light counterstain of Meyer's hematoxylin was applied.

The test system of assay [5] is lean liver transplantation in rats. Description: Lean liver transplantation, serum ALT. The class given is in vivo. Particulars: 60 μM in UW and Ringer's solutions plus 50 mg/kg i.p. to recipients; 6 h after LT; 8 h cold storage. As to the method: ABC294640 decreases graft injury after lean LT. To investigate whether ABC294640 protects liver grafts after LT, a pilot study was conducted. Lean livers were explanted and stored in UW solution for 8 h. ABC294640 was added to the UW solution and the lactated Ringer's post-storage solution at a concentration of 60 μM and injected into the recipients (50 mg/kg, i.p.) immediately after transplantation. […] Liver transplantation: Inbred male Lewis rats (200-250 g) were used to prevent immunological interference. Under ether anesthesia, heparin (200 IU) in 0.5 mL of lactated Ringer's solution was injected into the subhepatic vena cava. A 4-mm long stent prepared from polyethylene tubing (PE50) was inserted into the common bile duct and secured with a 6-0 suture. Livers were then flushed with 5 ml of ice-cold UW cold storage solution. Venous cuffs prepared from 14-gauge i.v. catheters were placed in the subhepatic vena cava and the portal vein. Liver explants were stored in UW solution (0-1° C.) for 4-24 h, rinsed with lactated Ringer's solution and then implanted (n=10 in each group). […] Clinical chemistry: Blood samples were collected from the vena cava at various times, and ALT and bilirubin were measured enzymatically using analytic kits from Pointe Scientific.

The mark [6] stands for this setting: 1 h-ischemia plus 6 h-reperfusion.

“Also recorded” adds a separate entry of the source.

As for `O=C(NCc1ccncc1)C12CC3CC(C1)CC(c1ccc(Cl)cc1)(C3)C2` [ABC294640, 3-(4-chlorophenyl)-N-(pyridin-4-ylmethyl)adamantane-1-carboxamide], the “necrotic area of liver tissue” value in assay [1] (50 mg/kg, 1 h-ischemia plus 6 h of reperfusion, image analysis of 10 random fields) is recorded as approximately 7%. Further, the “necrosis / cell death after hepatic IR (in words)” value in assay [1] (setting [6]) is “attenuates necrosis; also recorded: prevents cell death”. Besides, the “attenuation of necrosis compared to vehicle-treated livers” value in assay [1] (1 h-ischemia plus 6 h of reperfusion) is listed as approximately 90%. Also, the “liver function / hepatic IR injury (in words)” value in the assay on hepatic warm IR in mice [2] (setting [6]) was “markedly decreases hepatic IR injury; also recorded: improves liver function”. Besides, in the assay on hepatic warm IR in mice [2] (1 h-ischemia, 6 h after reperfusion), the “decrease of ALT compared to livers without treatment” value was more than 90%. Besides, the “accumulation of serum total bilirubin” value in the assay with hepatic warm IR in mice [2] (6 h after reperfusion) was “almost completely reversed”. Moreover, the “serum ALT levels after IR” value with hepatic warm IR in mice [2] (pretreatment 50 mg/kg, 1 h-ischemia, 6 h after reperfusion) is ~1,600 U/L. The “survival / acute liver failure after IR (in words)” value in the assay with hepatic warm IR in mice [3] is “significantly different; also recorded: completely prevented acute liver failure”. For the same compound, in the assay on hepatic warm IR in mice [3] (pretreated mice), the “survival after IR” value was 100%. Besides, the “decrease of PMN infiltration (MPO-positive cells)” value in assay [4] (50 mg/kg, i.g. once, 6 h after reperfusion) is given as approximately 70%. Further, the “PMN infiltration after hepatic IR (in words)” value in assay [4] (livers harvested 6 h or 2 weeks after IR) is “inhibits PMN infiltration”. In addition, the “PMN infiltration compared to untreated mice” value in assay [4] (one dose, 2 weeks after reperfusion) was “lower”. In addition, the “serum ALT after lean LT vs vehicle” value in assay [5] is “markedly attenuated; also recorded: decreases ALT release”.
